# Measurements: patent US20230057568A1, “COMPOUNDS FOR TREATING FAMILIAL DYSAUTONOMIA” (PTC THERAPEUTICS, INC., priority 2019, published 2023)
# Tested on: Elongator complex protein 1 (ELP1, also referred to as IKBKAP)
# Test: IKBKAP-HTRF Assay
# Format: cell-based, human
# Conditions: FD patient-derived fibroblasts GM04589, 48 hours incubation; for EC2x for IKBKAP protein expression (concentration producing two times the amount of IKBKAP protein vs DMSO vehicle control): 7-point concentration curve; for MFI (maximum fold increase in IKBKAP protein abundance relative to the vehicle control): HTRF
# Description: The assay is used for the quantitative determination of Elongator complex protein 1 (ELP1, also referred to as IKBKAP) concentration in cell lysates using the HTRF® (Homogeneous Time-Resolved Fluorescence) technology. IKBKAP is detected in a sandwich HTRF assay by use of an anti-IKAP antibody labeled with a donor and an anti-IKAP antibody labeled with an acceptor.
# Cells were thawed and incubated in DMEM-10% FBS for 72 hours. Cells were trypsinized, counted, and re-suspended to a concentration of 50,000 cells/mL in DMEM-10% FBS. A 199 μL, aliquot of the cell suspensions were plated at 10,000 cells per well in a 96 well microtiter plate and incubated for 3 to 5 hours. […] Test compounds were serially diluted 3.16-fold in 100% DMSO to generate a 7-point concentration curve. A 1 μL aliquot of 200× compound solution was transferred to cell-containing wells, and cells were incubated for 48 hours in a cell culture incubator (37° C., 5% CO2, 100% relative humidity). Triplicate samples were set up for each compound concentration. After 48 hours, the supernatant was removed from the cells and 50 μL of the 1× LB4 lysis buffer, containing protease inhibitors, was added to the cells and incubated with shaking at room temperature for 1 hour. A 36 μL aliquot of this lysate was subsequently transferred to the 384-well plate containing 4 μL of the antibody solution (1:50 dilution of anti IKAP d2 and anti-IKAP K(9+8) in detection buffer). The 384-well plate was then centrifuged for 1 minute to bring the solutions to the bottom of the plate and incubated overnight at 4° C. Fluorescence for each well of the plate at 665 nm and 620 nm was measured was on the EnVision plate reader (Perkin Elmer). The AF for each sample is calculated by: […]
# wherein Signal is the normalized fluorescence for each sample well and Blank is the average normalized average fluorescence for the Blank control wells.
# The maximum fold increase (MFI) in IKBKAP protein abundance for compounds of Formula (I) or a form thereof relative to the vehicle control are provided in Table 1. MFI was calculated by dividing the AF value for each sample well by the sample AF for the vehicle control wells.
# The EC2× for IKBKAP protein expression obtained from the 7-point concentration curve generated for each test compound according to the protocol in Biological Example 1 are also provided in Table 1. The term “EC2× for IKBKAP protein expression” is defined as the concentration of test compound that is effective in producing two times the amount of IKBKAP protein in a FD patient cell compared to the amount produced from the DMSO vehicle control.
Structure (SMILES),EC2x for IKBKAP protein expression (concentration producing two times the amount of IKBKAP protein vs DMSO vehicle control),MFI (maximum fold increase in IKBKAP protein abundance relative to the vehicle control)
"CC[C@H](N)Cc1sc2c(NCc3ccns3)nc(Cl)nc2c1C [Cpd 62, 6-[(2S)-2-aminobutyl]-2-chloro-7-methyl-N-[(1,2-thiazol-5-yl)methyl]thieno[3,2-d]pyrimidin-4-amine]",**** (between >0.005 μM and ≤0.02 μM),***** (>4.9)
"Cc1c(C[C@@H](N)CO)sc2c(NCc3cccs3)nc(Cl)nc12 [Cpd 56, (2R)-2-amino-3-(2-chloro-7-methyl-4-{[(thiophen-2-yl)methyl]amino}thieno[3,2-d]pyrimidin-6-yl)propan-l-ol]",***** (<0.005 μM),***** (>4.9)
"N[C@@H](CO)Cc1cc2nc(Cl)nc(NCc3ccco3)c2s1 [Cpd 22, (2R)-2-amino-3-(2-chloro-4-{[(furan-2-yl)methyl]amino}thieno[3,2-d]pyrimidin-6-yl)propan-l-ol]",***** (<0.005 μM),***** (>4.9)
"Cc1c(C[C@@H](N)CO)sc2c(NCc3ccco3)nc(Cl)nc12 [Cpd 19, (2R)-2-Amino-3-(2-chloro-4-{[(furan-2-yl)methyl]amino}-7-methylthieno[3,2-d]pyrimidin-6-yl)propan-1-ol]",***** (<0.005 μM),***** (>4.9)
"N#Cc1csc2c(NCc3cccs3)nc(Cl)nc12 [Cpd 84, 2-chloro-4-{[(thiophen-2-yl)methyl]amino}thieno[3,2-d]pyrimidine-7-carbonitrile]",*** (between >0.02 μM and ≤0.5 μM),**** (between >3.9 and <4.9)
"Cc1c(C[C@H](C)CN)sc2c(NCc3ccco3)nc(Cl)nc12 [Cpd 70, 6-[(2S)-3-amino-2-methylpropyl]-2-chloro-N-[(furan-2-yl)methyl]-7-methylthieno[3,2-d]pyrimidin-4-amine]",*** (between >0.02 μM and ≤0.5 μM),**** (between >3.9 and <4.9)
"CC[C@@H](N)c1sc2c(NCc3ccco3)nc(Cl)nc2c1C [Cpd 49, 6-[(1R)-1-aminopropyl]-2-chloro-N-[(furan-2-yl)methyl]-7-methylthieno[3,2-d]pyrimidin-4-amine]",* (EC2×>1 μM),* (MFI<1.9)
"Cc1csc2c(NCc3ccco3)nc(C(F)(F)F)nc12 [Cpd 25, N-[(furan-2-yl)methyl]-7-methyl-2-(trifluoromethyl)thieno[3,2-d]pyrimidin-4-amine]",* (EC2×>1 μM),* (MFI<1.9)
"C[C@H](N)Cc1sc2c(NCc3cccs3)nc(Cl)nc2c1C1CC1 [Cpd 86, 6-[(2S)-2-aminopropyl]-2-chloro-7-cyclopropyl-N-[(thiophen-2-yl)methyl]thieno[3,2-d]pyrimidin-4-amine]",**** (between >0.005 μM and ≤0.02 μM),**** (between >3.9 and <4.9)
"CC[C@H](N)Cc1cc2nc(Cl)nc(NCc3cccs3)c2s1 [Cpd 10, 6-[(2S)-2-aminobutyl]-2-chloro-N-[(thiophen-2-yl)methyl]thieno[3,2-d]pyrimidin-4-amine]",*** (between >0.02 μM and ≤0.5 μM),**** (between >3.9 and <4.9)
